In ChEMBL document CHEMBL6153076, “Discovery of novel JQ1 derivatives as dual ferroptosis and apoptosis inducers for the treatment of triple-negative breast cancer” (Eur J Med Chem, 2025):
Activity calls are given as the source filed them. The rule behind the calls is not given here.

Experiments:
[1] = Cytotoxicity against human MCF-10A cells assessed as inhibition of cell proliferation incubated for 72 hrs by MTT assay; assay type: toxicity, cell-based
MDA-MB-231 [2] = test: Downregulation of BRD4 expression in human MDA-MB-231 cells by Western blot analysis; assay type: functional, cell-based; settings: dose 0.2-5 µM
[3] = biological target: Bromodomain-containing protein 4 (Homo sapiens, UniProt O60885); test: Inhibition of BRD4 (unknown origin) incubated for 120 mins by TR-FRET assay
MDA-MB-231 [4] = test: Downregulation of GPX4 expression in human MDA-MB-231 cells by Western blot analysis; assay type: functional, cell-based; settings: dose 0.2-5 µM
MDA-MB-231 [5] = test: Induction of ferroptosis in human MDA-MB-231 cells assessed as increase in intracellular LPO accumulation incubated for 48 hrs by confocal laser scanning microscopic analysis; assay type: functional, cell-based; settings: dose 0.2-5 µM
MDA-MB-231 [6] = test: Induction of ferroptosis in human MDA-MB-231 cells assessed as increase in intracellular MDA accumulation incubated for 48 hrs; assay type: functional, cell-based; settings: dose 0.2-5 µM
MDA-MB-231 [7] = test: Induction of ferroptosis in human MDA-MB-231 cells assessed as decrease in GSH level incubated for 48 hrs; assay type: functional, cell-based; settings: dose 0.2-5 µM
MDA-MB-231 [8] = test: Induction of ferroptosis in human MDA-MB-231 cells assessed as increase in intracellular Fe2+ level at 0.2 to 5 uM incubated for 48 hrs by FerroOrange staining based flow cytometry analysis; assay type: functional, cell-based; settings: dose 0.2-5 µM
MDA-MB-231 [9] = test: Downregulation of SLC3A2 expression in human MDA-MB-231 cells; assay type: functional, cell-based; settings: dose 0.2-5 µM
MDA-MB-231 [10] = test: Downregulation of SLC7A11 expression in human MDA-MB-231 cells; assay type: functional, cell-based; settings: dose 0.2-5 µM
MDA-MB-231 [11] = test: Downregulation of FSP1 expression in human MDA-MB-231 cells; assay type: functional, cell-based; settings: dose 0.2-5 µM
MDA-MB-231 [12] = test: Downregulation of FTH1 expression in human MDA-MB-231 cells; assay type: functional, cell-based; settings: dose 0.2-5 µM
MDA-MB-231 [13] = test: Downregulation of NRF2 expression in human MDA-MB-231 cells at 0.2 to 5 uM; assay type: functional, cell-based; settings: dose 0.2-5 µM
MDA-MB-231 [14] = test: Downregulation of HO-1 expression in human MDA-MB-231 cells at 0.2 to 5 uM; assay type: functional, cell-based; settings: dose 0.2-5 µM
MDA-MB-231 [15] = test: Induction of apoptosis in human MDA-MB-231 cells assessed as viable cells at 0.2 uM incubated for 48 hrs by Annexin V/PI staining based flow cytometry analysis (reference value: 97.85%); assay type: functional; settings: read-out: Activity
MDA-MB-231 [16] = test: Induction of apoptosis in human MDA-MB-231 cells assessed as early apoptotic cells at 0.2 uM incubated for 48 hrs by Annexin V/PI staining based flow cytometry analysis (reference value: 0.80%); assay type: functional
MDA-MB-231 [17] = test: Induction of apoptosis in human MDA-MB-231 cells assessed as late apoptotic cells at 0.2 uM incubated for 48 hrs by Annexin V/PI staining based flow cytometry analysis (reference value: 0.14%); assay type: functional
MDA-MB-231 [18] = test: Induction of apoptosis in human MDA-MB-231 cells assessed as necrotic cells at 0.2 uM incubated for 48 hrs by Annexin V/PI staining based flow cytometry analysis (reference value: 0.03%); assay type: functional
MDA-MB-231 [19] = test: Induction of apoptosis in human MDA-MB-231 cells assessed as viable cells at 1 uM incubated for 48 hrs by Annexin V/PI staining based flow cytometry analysis (reference value: 97.85%); assay type: functional; settings: read-out: Activity
MDA-MB-231 [20] = test: Induction of apoptosis in human MDA-MB-231 cells assessed as early apoptotic cells at 1 uM incubated for 48 hrs by Annexin V/PI staining based flow cytometry analysis (reference value: 0.80%); assay type: functional
MDA-MB-231 [21] = test: Induction of apoptosis in human MDA-MB-231 cells assessed as late apoptotic cells at 1 uM incubated for 48 hrs by Annexin V/PI staining based flow cytometry analysis (reference value: 0.14%); assay type: functional
MDA-MB-231 [22] = test: Induction of apoptosis in human MDA-MB-231 cells assessed as necrotic cells at 1 uM incubated for 48 hrs by Annexin V/PI staining based flow cytometry analysis (reference value: 0.03%); assay type: functional
MDA-MB-231 [23] = test: Induction of apoptosis in human MDA-MB-231 cells assessed as viable cells at 5 uM incubated for 48 hrs by Annexin V/PI staining based flow cytometry analysis (reference value: 97.85%); assay type: functional; settings: read-out: Activity
MDA-MB-231 [24] = test: Induction of apoptosis in human MDA-MB-231 cells assessed as early apoptotic cells at 5 uM incubated for 48 hrs by Annexin V/PI staining based flow cytometry analysis (reference value: 0.80%); assay type: functional
MDA-MB-231 [25] = test: Induction of apoptosis in human MDA-MB-231 cells assessed as late apoptotic cells at 5 uM incubated for 48 hrs by Annexin V/PI staining based flow cytometry analysis (reference value: 0.14%); assay type: functional
MDA-MB-231 [26] = test: Induction of apoptosis in human MDA-MB-231 cells assessed as necrotic cells at 5 uM incubated for 48 hrs by Annexin V/PI staining based flow cytometry analysis (reference value: 0.03%); assay type: functional
MDA-MB-231 [27] = test: Induction of apoptosis in human MDA-MB-231 cells assessed as upregulation of Bax expression at 0.2 to 5 uM; assay type: functional, cell-based; settings: dose 0.2-5 µM
MDA-MB-231 [28] = test: Induction of apoptosis in human MDA-MB-231 cells assessed as upregulation of C-myc expression at 0.2 to 5 uM; assay type: functional, cell-based; settings: dose 0.2-5 µM
MDA-MB-231 [29] = test: Induction of apoptosis in human MDA-MB-231 cells assessed as […] expression at 0.2 to 5 uM; assay type: functional, cell-based; settings: dose 0.2-5 µM
MDA-MB-231 [30] = test: Induction of cell cycle arrest in human MDA-MB-231 cells assessed as accumulation of cells at G0/G1 phase at 0.2 uM incubated for 48 hrs by propidium iodide staining flow cytometric analysis (reference value: 64.56 %); assay type: functional
MDA-MB-231 [31] = test: Induction of cell cycle arrest in human MDA-MB-231 cells assessed as accumulation of cells at G2/M phase at 0.2 uM incubated for 48 hrs by propidium iodide staining flow cytometric analysis (reference value: 8.69%); assay type: functional
MDA-MB-231 [32] = test: Induction of cell cycle arrest in human MDA-MB-231 cells assessed as accumulation of cells at S phase at 0.2 uM incubated for 48 hrs by propidium iodide staining flow cytometric analysis (reference value: 26.75%); assay type: functional
MDA-MB-231 [33] = test: Induction of cell cycle arrest in human MDA-MB-231 cells assessed as accumulation of cells at G0/G1 phase at 1 uM incubated for 48 hrs by propidium iodide staining flow cytometric analysis (reference value: 64.56 %); assay type: functional
MDA-MB-231 [34] = test: Induction of cell cycle arrest in human MDA-MB-231 cells assessed as accumulation of cells at G2/M phase at 1 uM incubated for 48 hrs by propidium iodide staining flow cytometric analysis (reference value: 8.69%); assay type: functional
MDA-MB-231 [35] = test: Induction of cell cycle arrest in human MDA-MB-231 cells assessed as accumulation of cells at S phase at 1 uM incubated for 48 hrs by propidium iodide staining flow cytometric analysis (reference value: 26.75%); assay type: functional
MDA-MB-231 [36] = test: Induction of cell cycle arrest in human MDA-MB-231 cells assessed as accumulation of cells at G0/G1 phase at 5 uM incubated for 48 hrs by propidium iodide staining flow cytometric analysis (reference value: 64.56 %); assay type: functional
MDA-MB-231 [37] = test: Induction of cell cycle arrest in human MDA-MB-231 cells assessed as accumulation of cells at G2/M phase at 5 uM incubated for 48 hrs by propidium iodide staining flow cytometric analysis (reference value: 8.69%); assay type: functional
MDA-MB-231 [38] = test: Induction of cell cycle arrest in human MDA-MB-231 cells assessed as accumulation of cells at S phase at 5 uM incubated for 48 hrs by propidium iodide staining flow cytometric analysis (reference value: 26.75%); assay type: functional
MDA-MB-231 [39] = test: Anti-metastatic activity in human MDA-MB-231 cells assessed as inhibition of cell migration incubated for 24 hrs by inverted microscopic analysis; assay type: functional, cell-based; settings: dose 0.2-5 µM
MDA-MB-231 [40] = test: Antitumor activity against human MDA-MB-231 cells xenografted in nude mouse assessed as suppression of tumor growth at 50 mg/kg, ip administered daily for 21 days; assay type: functional, organism-based; settings: time 21.0 day
[41] = Toxicity in nude mouse xenografted with human MDA-MB-231 cells at 50 mg/kg, ip administered daily for 21 days; assay type: organism-based; settings: in vivo, 504 h, time 21 day
MDA-MB-231 [42] = test: Antitumor activity against human MDA-MB-231 cells xenografted in nude mouse assessed as tumor growth inhibition at 50 mg/kg, ip administered daily for 21 days; assay type: functional; settings: MDA-MB-231, 504 h, time 21 day, read-out: TGI
MDA-MB-231 [43] = test: cells; settings: Homo sapiens, MDA-MB-231, 72 h
Description: Antiproliferative activity against human MDA-MB-231 cells assessed as inhibition of cell proliferation incubated for 72 hrs by MTT assay

BT-549 = test: cells; settings: Homo sapiens, BT-549, 72 h
Description: Antiproliferative activity against human BT-549 cells assessed as inhibition of cell proliferation incubated for 72 hrs by MTT assay

Q: Which results are given for `Cc1sc2c(c1C)C(c1ccc(Cl)cc1)=N[C@@H](CC(=O)NC1CCN(C(=O)CCl)CC1)c1nnc(C)n1-2`?
A: IC50 at 72 h [1]: 2560 nM; Activity (MDA-MB-231 [2]): Dose-dependent-effect; IC50 [3]: 331 nM; Activity (MDA-MB-231 [4]): Dose-dependent-effect; Activity (MDA-MB-231 [5]): Dose-dependent-effect; Activity (MDA-MB-231 [6]): Dose-dependent-effect; Activity (MDA-MB-231 [7]): Dose-dependent-effect; Activity (MDA-MB-231 [8]): Active; Activity (MDA-MB-231 [9]): Dose-dependent-effect; Activity (MDA-MB-231 [10]): Dose-dependent-effect; Activity (MDA-MB-231 [11]): Dose-dependent-effect; Activity (MDA-MB-231 [12]): Dose-dependent-effect; Activity (MDA-MB-231 [13]): Active; Activity (MDA-MB-231 [14]): Active; viability at 0.2 µM (MDA-MB-231 [15]): 88%; Activity (MDA-MB-231 [16]): 6.1%; Activity (MDA-MB-231 [17]): 5.14%; Activity (MDA-MB-231 [18]): 0.68%; viability at 1 µM (MDA-MB-231 [19]): 72.5%; Activity (MDA-MB-231 [20]): 16.51%; Activity (MDA-MB-231 [21]): 9.51%; Activity (MDA-MB-231 [22]): 1.44%; viability at 5 µM (MDA-MB-231 [23]): 59.7%; Activity (MDA-MB-231 [24]): 18.2%; Activity (MDA-MB-231 [25]): 21.27%; Activity (MDA-MB-231 [26]): 0.7%; Activity (MDA-MB-231 [27]): Active; Activity (MDA-MB-231 [28]): Active; Activity (MDA-MB-231 [29]): Active; Activity (MDA-MB-231 [30]): 60.87%; Activity (MDA-MB-231 [31]): 10.25%; Activity (MDA-MB-231 [32]): 28.88%; Activity (MDA-MB-231 [33]): 53.71%; Activity (MDA-MB-231 [34]): 15.47%; Activity (MDA-MB-231 [35]): 30.62%; Activity (MDA-MB-231 [36]): 42.44%; Activity (MDA-MB-231 [37]): 25.39%; Activity (MDA-MB-231 [38]): 32.17%; Activity (MDA-MB-231 [39]): Dose-dependent-effect; Activity (MDA-MB-231 [40]): Active; Activity [41]: Non-toxic; inhibition in vivo at 50 mg/kg (MDA-MB-231 [42]): 51.4%; IC50 (MDA-MB-231 [43]): 490 nM; IC50 (BT-549): 520 nM
